From patent US9939427B2, “Method for evaluating the scent performance of perfumes or perfume mixtures” (Symrise AG, priority 2013, dated 2018)

Key:
OR10Q1-614 = test: Ca-imaging of mutant OR10Q1 in HEK293 cells; assay type: cell-based, human; conditions: 200 μM, applied for 20 seconds
Excerpt: Mutations were introduced for OR1B1 and OR10Q1 by Overlap Extension PCR (OEP). […] Flanking primers in combination with internal primers provided mutated gene segments, Full length primers included EcoRI and NotI restriction sites for further cloning into pCI expression vector. Site-directed mutations were selected for base of minor allele frequency of nucleotide.
In mutagenesis by overlap extension PCR method, initial PCRs provided mutated gene segments, with overlapping complementary 3′ ends carrying desired point mutation that were then mixed and used as template for a subsequent PCR to generate the full-length product. Overlapping strands of these intermediate products hybridize at this 3′ region in a subsequent PCR and are extended to generate the full-length product amplified by flanking primers; this shown in FIG. 2. […]
Calcium imaging of the transfected HEK293 cells was done by using chambers determinate an inverted microscope (Olympus; IX70) using a 10× objective (CPIanFL N Olympus). Fluorescence emission was determined every 4 s by using a CCD camera (Charge Coupled Device, C9100 Hamamatsu). […] Odorants were manually monitored to drop each 4-5 s to transfected cells. […]
In experiments, Fura-2 Acetoxymethylester (Fura-2/AM) was applied. […] According to this feature, the analysis of 340/380 nm excitation ratio for Fura-2 allows to quantify intracellular calcium levels. […]

OR10Q1 = molecular target: T1, OR10Q1 (Homo sapiens, UniProt Q8NGQ4); test: CRE-luciferase assay, OR10Q1 in HANA3A cells; assay type: cell-based; conditions: 50 μM, 100 μM, 150 μM, 200 μM and 250 μM; ratio of firefly to renila
T1 construct: specific primers, which amplify the complete open reading frame; expressed in transfected cells; host or cells: HEK293
T1 sequence (Q8NGQ4 1-319): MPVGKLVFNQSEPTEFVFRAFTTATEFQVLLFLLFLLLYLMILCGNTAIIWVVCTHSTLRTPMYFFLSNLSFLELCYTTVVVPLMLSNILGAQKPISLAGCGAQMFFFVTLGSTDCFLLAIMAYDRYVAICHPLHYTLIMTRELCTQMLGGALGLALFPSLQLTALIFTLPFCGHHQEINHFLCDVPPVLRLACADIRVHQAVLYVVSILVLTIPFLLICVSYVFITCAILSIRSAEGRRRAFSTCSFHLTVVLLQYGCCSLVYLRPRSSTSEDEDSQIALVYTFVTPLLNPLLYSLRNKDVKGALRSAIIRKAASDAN
Description: Calcium cations and phosphate anions created crystal precipitations coupled with DNA which could invade into the cells through endocytosis. Cells were transiently transfected with plasmid DNA which consists of pCI expression vector and PCR-amplified full-length cDNA of olfactory receptors candidates, and also Gα15, RTP1, Myr-Ric8A, HSC70, and m-Cherry as cofactors. The precipitation could be created after 15-20 min, with dropping the transfection solution on HEK293 cells. Before measuring by Ca-imaging cells were incubated 48-60 hours at 370 C, 5% CO2. Cationic liposome-mediated transfection method was applied to transfect DNA plasmid transiently in HANA3A cells in case of CRE-Luciferase and CRE-SEAP assays. […]
ORs responded by Ca-imaging with seven separate odorant mixtures formed from 66 odorants. […] Transfected HANA3A cells on poly-D-lysine-coated 96 well plates are ready for stimulation after 24 h. […] Measuring by plate reader (Luminometer). • 6. […] Measuring by plate reader (Luminometer). • 8. According to manufacturer's protocols for measuring luciferase and renilla activities, calculate normalized luciferase activity with using the formula (Ln-Lmin)/(Lmax-Lmin), where Ln is the luminescence of firefly in response to the odorant, L min is the minimum luciferase value on a plate, and L max is the maximum luciferase value on plate. […]

CRE-luciferase (cAMP assay) response of OR10Q1 (OR10Q1): positive responses
SMILES: O=C1CCCCCCCCCCCCCCO1 [Pentadecanolide, ω-cyclopentadecanolide]
Response of mutated OR10Q1 in comparison with OR10Q1 WT (OR10Q1-614): does not show any significant difference
Response of mutated OR10Q1 in comparison with OR10Q1 WT (OR10Q1-614; listed as pentadecalactone): did not show any difference
